How the values were obtained:
HL 60 cells = experiment: differentiation induction of HL 60 cells to macrophages (NBT reduction); format: cell-based, human; settings: dose ratio test substance/calcitriol for comparable semi-maximum differentiation induction; 96 hours incubation
Description: The differentiation-stimulating action of calcitriol analogues is also detected quantitatively.
It is known in the literature [Mangelsdorf, D. J. et al., J. Cell. Biol. 98: 391 (1984)] that the treatment of human leukemia cells (promyelocyte cell line HL 60) in vitro with calcitriol induces the differentiation of cells to macrophages.
HL 60 cells are cultivated in tissue culture medium (RPMI 10% fetal calf serum) at 37° C. in an atmosphere of 5% CO2 in air.
For substance testing, the cells are centrifuged off, and 2.0×10^5 cells/ml in phenol red-free tissue culture medium is taken up. The test substances are dissolved in ethanol and diluted with tissue culture medium without phenol red to the desired concentration. The dilution stages are mixed with the cell suspension at a ratio of 1:10, and 100 μl each of this cell suspension that is mixed with substance is pipetted into an indentation of a 96-hole plate. For control, a cell suspension is mixed analogously with the solvent.
After incubation for 96 hours at 37° C. in 5% CO2 in air, 100 μl of an NBT-TPA solution (nitro blue tetrazolium (NBT), final concentration in the batch of 1 mg/ml, tetradecanoyl phorbolmyristate-13-acetate (TPA), final concentration in the batch of 2×10^−7 mol/l) is pipetted into each indentation of the 96-hole plate in the cell suspension.
By incubation for 2 hours at 37° C. and 5% CO2 in air, NBT is reduced to insoluble formazan because of the intracellular oxygen radical release, stimulated by TPA, in the cells that are differentiated to macrophages.
To complete the reaction, the indentations of the 96-hole plate are suctioned off, and the cells are affixed to the bottom of the plate by adding methanol and dried after affixing. To dissolve the intracellular formazan crystals that are formed, 100 μl of potassium hydroxide (2 mol/l) and 100 μl of dimethyl sulfoxide are pipetted into each indentation and ultrasonically treated for 1 minute. The concentration of formazan is measured by spectrophotometry at 650 nm.
As a yardstick for the differentiation induction of HL 60 cells to macrophages, the concentration of formed formazan applies.

[1] = acute hypercalcemic action (serum-calcium) in rats; format: in vivo, rat; settings: dose ratio test substance/calcitriol for comparable hypercalcemic action; one-time subcutaneous administration, male rats
Description: To determine the acute hypercalcemic action of various calcitriol derivatives, the test that is described below is carried out:
The action of control (solution base), reference substance (1,25-dihydroxy vitamin D3=calcitriol) and test substance is tested in each case after one-time subcutaneous administration in groups of 10 healthy male rats (140–170 g). During the testing time, the rats are kept in special cages to determine the excretion of water and mineral substances. Urine is collected in 2 fractions (0–16 hours and 16–22 hours). An oral dose of calcium (0.1 mmol of calcium in 6.5% alpha-hydroxypropylcellulose, 5 ml/animal) replaces at 1600 hours the calcium intake that is lacking by food deprivation. At the end of the test, the animals are killed by decapitation and exsanguinated to determine the serum-calcium values. For the primary screen test in vivo, an individual standard dose (200 μg/kg) is tested. For selected substances, the result is supported by establishing a dose-effect relation.
A hypercalcemic action is shown in serum-calcium level values that are higher than in the control.
The significance of differences between substance groups and controls and between test substance and reference substance are supported with suitable statistical processes.

[2] = metabolic stability in liver homogenate; format: in vitro ADME; settings: half-life in the liver homogenate (rat)
Description: To determine the metabolic stability, the test substance is incubated with tissue homogenate (from the rat liver) in the presence of buffer systems. The drop in starting concentration is tracked as a function of time. After a certain time, the incubation is stopped, and the unaltered test substance is extracted from the homogenate (diethyl ether), concentrated by evaporation under nitrogen, isolated via HPLC (mobile solvent: acetonitrile/water) and detected using UV-absorption.

calcitriol receptor = molecular target: T1, calcitriol receptor (Sus scrofa, UniProt A3RGC1); experiment: calcitriol-receptor test (competition with 3H-calcitriol); settings: competition factor = concentration of test substance / concentration of calcitriol at 50% competition; protein extract from intestines of juvenile pigs
T1 sequence (A3RGC1 1-427): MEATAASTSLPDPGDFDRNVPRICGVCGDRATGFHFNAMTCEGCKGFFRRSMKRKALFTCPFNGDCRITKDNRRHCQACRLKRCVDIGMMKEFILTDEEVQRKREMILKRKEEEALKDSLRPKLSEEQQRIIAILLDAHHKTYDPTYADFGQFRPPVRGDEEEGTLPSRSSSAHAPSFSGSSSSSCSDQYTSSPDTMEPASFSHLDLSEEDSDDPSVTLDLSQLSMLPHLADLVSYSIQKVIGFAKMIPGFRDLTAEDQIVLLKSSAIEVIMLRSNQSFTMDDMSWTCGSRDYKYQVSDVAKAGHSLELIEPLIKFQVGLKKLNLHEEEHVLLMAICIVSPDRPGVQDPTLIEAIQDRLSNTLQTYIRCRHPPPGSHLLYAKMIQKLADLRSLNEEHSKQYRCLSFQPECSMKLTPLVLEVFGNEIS
Description: The vitamin D activity of the substances according to the invention is determined with the aid of the calcitriol-receptor test. It is carried out using a protein extract from the intestines of juvenile pigs.
Then, the samples are centrifuged at 10,000 g for 5 minutes at 4° C. The supernatant is decanted and measured in a β-counter after 1 hour of equilibration in Picofluor 15™.
The competition curves that are obtained at various concentrations of test substance as well as of reference substance (unlabeled calcitriol) at constant concentration of the reference substance (^3H-calcitriol) are placed in relation to one another, and a competition factor (KF) is determined.
It is defined as a quotient of the concentrations of the respective test substance and the reference substance, which are necessary for 50% competition:

Structure (SMILES) | DR HL 60 (HL 60 cells) | DR Ca [1] | T½ [2] [h] | KF (calcitriol receptor) | half-life ([2]; read-out: T½) [h]
C=C1/C(=C\C=C2/CCC[C@]3(C)[C@@H]([C@H](C)/C=C/[C@@H](O)CCC4(C(=O)CCC)CC4)CC[C@@H]23)C[C@@H](O)C[C@@H]1O [Compound 175b, (5Z,7E,22E)-(1S,3R,24S)-25-(1-oxobutyl)-26,27-cyclo-24a,24b-dihomo-9,10-secocholesta-5,7,10(19),22-tetraene-1,3,24-triol] | 3 | >100 | 1.5 | 1 | 
C=C1/C(=C\C=C2/CCC[C@]3(C)[C@@H]([C@H](C)/C=C/[C@@H](O)CCC4(C(=O)CCCC)CC4)CC[C@@H]23)C[C@@H](O)C[C@@H]1O [Compound 182b, (5Z,7E,22E)-(1S,3R,24S)-25-(1-oxopentyl)-26,27-cyclo-24a,24b-dihomo-9,10-secocholesta-5,7,10(19) ,22-tetraene-1,3,24-triol] | 18 | >100 | 1.67 | 2 | 
C=C1/C(=C\C=C2/CCC[C@]3(C)[C@@H]([C@H](C)/C=C/[C@@H](O)C4(CCCCCCC)CC4)CC[C@@H]23)C[C@@H](O)C[C@@H]1O [Compound 236b, (5Z,7E,22E)-(1S,3R,24R)-25-heptyl-26,27-cyclo-9,10-secocholesta-5,7,10(19),22-tetraene-1,3,24-triol] | 4 | >>30 | 1.67 | 20 | 
C=C1/C(=C\C=C2/CCC[C@]3(C)[C@@H]([C@H](C)/C=C/[C@@H](O)C4CC4)CC[C@@H]23)C[C@@H](O)C[C@@H]1O [calcipotriol, (5Z,7E,22E)-(1S,3R,24S)-26,27-Cyclo-9,10-secocholesta-5,7,10(19),22-tetraene-1,3,24-triol, reference compound] | 1 | 50 |  | 1 | 0.667
C=C1/C(=C\C=C2/CCC[C@]3(C)[C@@H]([C@H](C)/C=C/[C@H](O)C4(CC)CC4)CC[C@@H]23)C[C@@H](O)C[C@@H]1O [Compound 214a, (5Z,7E,22E)-(1S,3R,24S)-25-Ethyl-26,27-cyclo-9,10-secocholesta-5,7,10(19),22-tetraene-1,3,24-triol] | 1.5 | >>1 | 1.33 | 3 | 
C=C1C(=CC=C2CCCC3(C)C2CCC3C(C)C=CCCC2(C(=O)CCC)CC2)CC(O)CC1O [Compound 131, (5Z,7E,22E)-(1S,3R)-25-(1-oxobutyl)-26,27-cyclo-24a-homo-9,10-secocholesta-5,7,10(19) ,22-tetraene-1,3-diol] | 0.2 | 30 | 2 | 10 | 
C=C1/C(=C\C=C2/CCC[C@]3(C)[C@@H]([C@H](C)/C=C/CC4(C(=O)CCC)CC4)CC[C@@H]23)C[C@@H](O)C[C@@H]1O [Compound 71, (5Z,7E,22E)-(1S,3R)-25-(1-Oxobutyl)-26,27-cyclo-9,10-secocholesta-5,7,10(19),22-tetraene-1,3-diol] | 1.7 | 100 | 2 | 9 | 
